According to BindingDB's records for patent US10759792 (The Johns Hopkins University, 2020):

Biological target: Calcium/calmodulin-dependent protein kinase type II subunit delta (Homo sapiens, UniProt Q13557)
Assay: Inhibition Assay
Description: Compounds were added in 5 uL volume to wells in UV transparent 96-well plates ( area well size). The final compound concentrations tested ranged from 0.5 nM to 10 uM). Assays were performed in duplicate. CaMKIIδ is added to at a final concentration of 16 nM to a mixture containing 100 mM Tris (pH 7.5), 150 mM KCl, 0.27 mM EGTA, 1.3 mM PEP, 0.2 mg/ml AC3, 6.9% (v/v) PK/LDH mixture (Sigma P0294), 0.38 mM NADH and kept on ice. 72 uL of the enzyme mixture was added to the wells containing compounds and the plate was shaken briefly and kept on ice. The assay was initiated by adding 23 uL of a mixture containing 100 mM Tris (pH 7.5), 150 mM KCl, 1.7 mM CaCl2, 48 mM MgCl2, 0.35 mM ATP and 6.7 ug/mL calmodulin. The rate of ADP released was measured as the rate of absorbance decrease at […] at 25° C.

Calcium/calmodulin-dependent protein kinase type II subunit delta, sequence (Q13557 whole entry): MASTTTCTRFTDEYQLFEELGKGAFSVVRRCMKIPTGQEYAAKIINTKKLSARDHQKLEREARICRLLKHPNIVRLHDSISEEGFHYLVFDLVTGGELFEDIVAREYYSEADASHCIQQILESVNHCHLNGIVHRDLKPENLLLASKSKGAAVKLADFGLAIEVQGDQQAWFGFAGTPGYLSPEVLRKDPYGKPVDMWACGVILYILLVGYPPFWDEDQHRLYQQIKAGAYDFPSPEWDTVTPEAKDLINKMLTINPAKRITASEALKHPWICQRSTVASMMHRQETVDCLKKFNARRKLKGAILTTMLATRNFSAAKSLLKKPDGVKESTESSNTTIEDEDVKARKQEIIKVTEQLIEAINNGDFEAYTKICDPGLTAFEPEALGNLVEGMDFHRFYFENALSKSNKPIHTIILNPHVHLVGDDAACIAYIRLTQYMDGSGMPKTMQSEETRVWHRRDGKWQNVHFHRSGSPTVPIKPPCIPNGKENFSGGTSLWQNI

Row | IC50 [nM] | SMILES
1 | < 50 | NCCCNc1cccc(-c2ccnc3[nH]c4ccccc4c23)c1 [US10759792, Compound I-8]
2 | < 50 | Cc1ccc2c(c1)[nH]c1nccc(-c3cccc(NCCN)c3)c12 [US10759792, Compound I-11]
